# Assay results reported in patent publication US11478460B2, “Diaryl substituted 6,5-fused ring compounds as C5aR inhibitors” (CHEMOCENTRYX, INC., priority 2017, dated 2022).
# pIC50: −log10 of the molar value.
# Target: C5aR (Homo sapiens (Human), UniProt P21730)
# Assay: Chemotaxis assay using U937 cells (C5aR mediated migration)
# Assay type: cell-based
# Conditions: read-out: Mig IC50
# In short: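 U937 monocytic cells, pretreated overnight with 0.5 mM cyclic AMP, placed at 100,000 cells in the upper well above 5 μm polycarbonate filters. Lower well held 0.03 nM C5a plus compound in HBSS/1% FBS; after 1.5 h at 37° C migrated cells counted directly or by CyQuant, giving IC50.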
# C5aR, sequence (P21730 whole entry): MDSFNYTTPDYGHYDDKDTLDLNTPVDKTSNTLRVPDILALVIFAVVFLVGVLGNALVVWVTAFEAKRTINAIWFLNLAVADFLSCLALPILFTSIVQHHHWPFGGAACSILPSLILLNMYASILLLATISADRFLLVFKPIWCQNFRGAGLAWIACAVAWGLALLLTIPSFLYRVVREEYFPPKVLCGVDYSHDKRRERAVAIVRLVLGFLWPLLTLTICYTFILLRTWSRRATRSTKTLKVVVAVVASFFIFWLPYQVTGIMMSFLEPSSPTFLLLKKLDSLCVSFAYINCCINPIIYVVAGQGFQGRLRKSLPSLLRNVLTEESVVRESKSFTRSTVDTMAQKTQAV
row,pIC50,SMILES
1,7.30 to 8.30,Cc1cccc(OCC(C)C)c1-n1nc2c(c1-c1ccc(NC(N)=O)cc1)CN(Cc1c(Cl)cccc1Cl)CC2 [Example 1.367]
2,7.30 to 8.30,Cc1cccc(C)c1-n1nc2c(c1-c1ccc(N)cc1)CN(c1ccccc1C(C)(C)C)CC2 [Example 1.471]
3,7.30 to 8.30,Cc1cccc(OC(C)C)c1-n1nc2c(c1-c1ccc(N)cc1)CN(c1ccccc1C(C)C)CC2 [Example 1.465]
4,≥ 8.30,Cc1cc(NC(N)=O)c(F)cc1-c1c2c(nn1-c1c(C)cccc1C)CCN(c1ccc(C(F)(F)F)cc1F)C2 [Example 1.117]
5,7.30 to 8.30,CCC(C)(C)N1CCc2nn(-c3c(C)cccc3OCC(C)C)c(-c3ccc(NC(N)=O)c(F)c3)c2C1 [Example 1.230]
6,< 6.30,Cc1cccc(OCC(C)C)c1-n1nc2c(c1-c1ccc(NC(=O)N(C)C)cc1)CN(c1ncc(C(F)(F)F)cc1F)CC2 [Example 1.289]
7,< 6.30,CC(C)c1ccccc1-n1nc2c(c1-c1ccc(NC(N)=O)cc1)CN(C(=O)OC(C)(C)C)CC2 [Example 1.416]
8,≥ 8.30,Cc1cccc(OCC(C)C)c1-n1nc2c(c1-c1ccc(NC(N)=O)cc1)CN(Cc1ccc(Cl)cc1C(F)(F)F)CC2 [Example 1.327]
9,6.30 to 7.30,COc1cccc(C)c1-n1nc2c(c1-c1ccc(N)cc1)CN(c1ccccc1C(C)C)CC2 [Example 1.486]
10,6.30 to 7.30,Cc1cc(N)ccc1-c1c2c(nn1-c1c(C)cccc1C)CCN(c1ccccc1C(C)C)C2 [Example 1.468]
11,7.30 to 8.30,Cc1ccc(N2CCc3nn(-c4c(C)cccc4OCC(C)C)c(-c4ccc(NC(N)=O)cc4)c3C2)cc1C(F)(F)F [Example 1.440]
12,6.30 to 7.30,Cc1cccc(CCC(C)C)c1-n1nc2c(c1-c1ccc(NC(N)=O)cc1)CN(C(=O)OC(C)(C)C)CC2 [Example 1.414]
13,7.30 to 8.30,Cc1cccc(OCC(C)C)c1-n1nc2c(c1-c1ccc(NC(N)=O)cc1)CN(C(=O)OC(C)(C)C)CC2 [Example 1.439]
14,≥ 8.30,Cc1cccc(C)c1-n1nc2c(c1-c1cc(F)c(NC(N)=O)cc1F)CN(c1ccc(Cl)cc1Cl)CC2 [Example 1.119]
15,≥ 8.30,Cc1cccc(OCC(C)C)c1-n1nc2c(c1-c1ccc(NC(N)=O)cc1)CN(C(C)c1cccc(C(F)(F)F)c1)CC2 (centres unmarked) [Example 1.319]
16,≥ 8.30,Cc1cccc(OCC(C)C)c1-n1nc2c(c1-c1ccc(NC(N)=O)cc1)CN(c1cccc(C(F)(F)F)c1)CC2 [Example 1.412]
17,≥ 8.30,Cc1cccc(OCC(C)C)c1-n1nc2c(c1-c1cc(F)c(NC(N)=O)cc1F)CN(C(C)(C)c1ccccc1)CC2 [Example 1.207]
18,≥ 8.30,Cc1cccc(OCC(C)C)c1-n1nc2c(c1-c1ccc(NC(N)=O)c(F)c1)CN(c1ccc(C(F)(F)F)cc1Cl)CC2 [Example 1.241]
19,7.30 to 8.30,COc1cccc(C)c1-n1nc2c(c1-c1ccc(N)cc1)CN(c1ccccc1C(C)(C)C)CC2 [Example 1.459]
20,< 6.30,Cc1ccc(C(C)(C)C)cc1N1CCc2nn(-c3ccccc3C(C)C)c(-c3ccc(N(C)C(N)=O)cc3)c2C1 [Example 1.402]
21,7.30 to 8.30,Cc1cccc(OCC(C)C)c1-n1nc2c(c1-c1ccc(NC(N)=O)cc1)CN(Cc1ccccc1Cl)CC2 [Example 1.313]
22,< 6.30,COc1cccc(C)c1-n1nc2c(c1-c1ccc(NC(C)=O)cc1)CN(c1ccccc1C(C)C)CC2 [Example 1.483]
23,< 6.30,Cc1cccc(OCC(C)C)c1-n1nc2c(c1-c1ccc(C(C)(C)O)cc1)CN(c1ccccc1C(C)(C)C)CC2 [Example 1.449]
24,7.30 to 8.30,Cc1cccc(OCC(C)C)c1-n1nc2c(c1-c1ccc(NC(N)=O)cc1)CN(Cc1c(F)cccc1Cl)CC2 [Example 1.350]
25,7.30 to 8.30,COc1cccc(C)c1-n1nc2c(c1-c1ccc(NC(N)=O)cc1)CN(c1ccccc1C(C)C)CC2 [Example 1.482]
26,≥ 8.30,Cc1cccc(F)c1CN1CCc2nn(-c3c(C)cccc3OCC(C)C)c(-c3ccc(NC(N)=O)cc3)c2C1 [Example 1.360]
27,≥ 8.30,Cc1cnc(N2CCc3nn(-c4c(C)cccc4OCC(C)C)c(-c4ccc(NC(N)=O)cc4)c3C2)c(C(F)(F)F)c1 [Example 1.296]
28,≥ 8.30,Cc1cccc(OCC(C)C)c1-n1nc2c(c1-c1ccc(NC(N)=O)cc1)CN(c1cc(C(C)(C)C)ccc1F)CC2 [Example 1.421]
29,6.30 to 7.30,Cc1cccc(OCC(C)C)c1-n1nc2c(c1-c1ccc(NC(N)=O)cc1)CN(C(=O)c1ccc(C(C)(C)C)cc1)CC2 [Example 1.432]
30,6.30 to 7.30,COc1cccc(C)c1-n1nc2c(c1-c1ccc(NC(N)=O)cc1)CN(c1ncccc1C)CC2 [Example 1.408]

# Further lines, the compound ahead of its results:
row,SMILES,pIC50
1,CCc1cccc(CC)c1-n1nc2c(c1-c1cc(F)c(NC(N)=O)cc1F)CN(Cc1ccc(C(C)(C)C)cc1)CC2 [Example 1.054],≥ 8.30
2,CCc1cccc(CC)c1-n1nc2c(c1-c1cc(F)c(NC(N)=O)cc1F)CN(C(C)c1ccccc1F)CC2 (centres unmarked) [Example 1.161],≥ 8.30
3,Cc1cccc(OCC(C)C)c1-n1nc2c(c1-c1ccc(NC(N)=O)cc1)CN(C(=O)C1CCC1)CC2 [Example 1.426],6.30 to 7.30
4,CCc1cccc(CC)c1-n1nc2c(c1-c1cc(F)c(NC(N)=O)cc1F)CN(C(C)(C)CC)CC2 [Example 1.212],≥ 8.30
5,Cc1cccc(OCC(C)C)c1-n1nc2c(c1-c1ccc(NC(N)=O)c(F)c1)CN(CC(C)C)CC2 [Example 1.273],7.30 to 8.30
6,Cc1cc(NC(N)=O)c(F)cc1-c1c2c(nn1-c1c(C)cccc1OCC(C)C)CCN(c1ncc(C(C)C)cc1F)C2 [Example 1.129],≥ 8.30
7,CCc1cccc(CC)c1-n1nc2c(c1-c1cc(F)c(NC(N)=O)cc1F)CN(CC1CCCC1)C(C)(C)C2 [Example 1.043],≥ 8.30
8,CCc1cccc(CC)c1-n1nc2c(c1-c1cc(F)c(NC(N)=O)cc1F)CN(c1ncc(Cl)cc1Cl)[C@H](C)C2 [Example 1.018],≥ 8.30
9,CCc1cccc(CC)c1-n1nc2c(c1-c1cc(F)c(NC(N)=O)cc1OC)CN(Cc1ccc(C(F)(F)F)cc1C(F)(F)F)CC2 [Example 1.042],≥ 8.30
10,Cc1cccc(OCC(C)C)c1-n1nc2c(c1-c1cc(F)c(NC(N)=O)cc1F)CN(c1ncccc1Cl)CC2 [Example 1.170],≥ 8.30
11,CCc1cccc(CC)c1-n1nc2c(c1-c1ccc(NC(N)=O)cc1)CN(Cc1cc(Cl)ccc1OC(C)C)CC2 [Example 1.284],7.30 to 8.30
12,COc1cc(NC(N)=O)c(F)cc1-c1c2c(nn1-c1c(C)cccc1OCC(C)C)CCN(c1ncc(C(C)C)cc1F)C2 [Example 1.130],≥ 8.30
13,CCc1cccc(CC)c1-n1nc2c(c1-c1cc(F)c(NC(N)=O)cc1F)CN(Cc1ccccc1)CC2 [Example 1.051],≥ 8.30
14,CC(C)COc1cccnc1-n1nc2c(c1-c1cc(F)c(NC(N)=O)cc1F)CN(c1ncc(Cl)cc1Cl)CC2 [Example 1.171],7.30 to 8.30
15,Cc1cccc(OCC(C)C)c1-n1nc2c(c1-c1ccc(NC(N)=O)cc1)CN(Cc1c(F)cc(C(F)(F)F)cc1C(F)(F)F)CC2 [Example 1.334],≥ 8.30
16,Cc1cccc(OCC(C)C)c1-n1nc2c(c1-c1cc(F)c(NC(N)=O)cc1F)CN(c1ncc(Cl)cc1Cl)CC2 [Example 1.210],≥ 8.30
17,Cc1cc(C)c(-n2nc3c(c2-c2ccc(NC(N)=O)cc2)CN(c2ncc(C(F)(F)F)cc2F)CC3)c(C)c1 [Example 1.287],7.30 to 8.30
18,Cc1cc(N2CCc3nn(-c4c(C)cccc4OCC(C)C)c(-c4cc(F)c(NC(N)=O)cc4F)c3C2)ncc1Cl [Example 1.177],≥ 8.30

row,SMILES,pIC50
1,CCc1cccc(CC)c1-n1nc2c(c1-c1cc(F)c(NC(N)=O)cc1F)CN([C@@H](CC)c1ccccc1)CC2 [Example 1.084],≥ 8.30
2,CCCC(O)C(C)(C)N1CCc2nn(-c3c(CC)cccc3CC)c(-c3cc(F)c(NC(N)=O)cc3F)c2C1 (centres unmarked) [Example 1.090],≥ 8.30
3,Cc1cccc(OCC(C)C)c1-n1nc2c(c1-c1cc(F)c(NC(N)=O)c(F)c1)CN(c1ncc(C(F)(F)F)cc1F)CC2 [Example 1.263],6.30 to 7.30
4,Cc1cccc(OCC(C)C)c1-n1nc2c(c1-c1ccc(NC(N)=O)cc1)CN(Cc1ccc(C(F)(F)F)cc1F)CC2 [Example 1.329],≥ 8.30
5,CC(C)COc1ccccc1-n1nc2c(c1-c1cc(F)c(NC(N)=O)cc1F)CN(C(C)(C)c1ccccc1)CC2 [Example 1.199],≥ 8.30
6,Cc1cccc(OCC(C)C)c1-n1nc2c(c1-c1ccc(NC(N)=O)c(F)c1)CN(CC1CCCC1)CC2 [Example 1.272],≥ 8.30
7,CCc1cccc(CC)c1-n1nc2c(c1-c1cc(F)c(NC(N)=O)cc1F)CN(C(C)c1ccccc1C(F)(F)F)CC2 (centres unmarked) [Example 1.208],≥ 8.30
8,Cc1cccc(OCC(C)C)c1-n1nc2c(c1-c1ccc(NC(N)=O)cc1)CN(CC1(C(F)(F)F)CC1)CC2 [Example 1.372],7.30 to 8.30
9,CCc1cccc(CC)c1-n1nc2c(c1-c1cc(F)c(NC(N)=O)cc1F)CN(Cc1cc(F)ccc1C(F)(F)F)CC2 [Example 1.028],≥ 8.30
10,Cc1cccc(OCC(C)C)c1-n1nc2c(c1-c1ccc(NC(N)=O)cc1)CN(C1CCCCC1)CC2 [Example 1.406],6.30 to 7.30
11,CCc1cccc(CC)c1-n1nc2c(c1-c1ccc(NC(N)=O)cc1)CN(c1ncc(C(F)(F)F)cc1F)CC2 [Example 1.301],7.30 to 8.30
12,Cc1cccc(OCC(C)C)c1-n1nc2c(c1-c1ccc(NC(N)=O)c(F)c1)CN(Cc1nccs1)CC2 [Example 1.234],7.30 to 8.30
13,Cc1cccc(OCC(C)C)c1-n1nc2c(c1-c1cc(F)c(NC(N)=O)cc1F)CN(c1ncc(C3CC3)cc1F)CC2 [Example 1.172],≥ 8.30
14,CCc1cccc(CC)c1-n1nc2c(c1-c1cc(F)c(NC(N)=O)cc1C)CN(Cc1ccc(C(F)(F)F)cc1C(F)(F)F)CC2 [Example 1.068],≥ 8.30
15,CCc1cccc(CC)c1-n1nc2c(c1-c1cc(F)c(NC(N)=O)cc1F)CN(Cc1cc(C(F)(F)F)ccc1F)CC2 [Example 1.039],≥ 8.30
16,NC(=O)Nc1cc(F)c(-c2c3c(nn2-c2c(F)cccc2F)CCN(c2ncc(Cl)cc2Cl)C3)cc1F [Example 1.183],7.30 to 8.30
17,CCc1cccc(CC)c1-n1nc2c(c1-c1cc(F)c(NC(N)=O)cc1F)CN(Cc1cc(OC)ccc1C(F)(F)F)CC2 [Example 1.045],≥ 8.30
